Data published in ChEMBL document CHEMBL2074557 (Drug Metab Dispos, 1999).

Molecular target: ATP-dependent translocase ABCB1 (Mus musculus, UniProt P21447)
Assay: TP_TRANSPORTER: increase in plasma concentration in PGP(-/-) mouse
Type: functional, organism-based
Conditions: in vivo

Sequence of ATP-dependent translocase ABCB1 (P21447 whole entry): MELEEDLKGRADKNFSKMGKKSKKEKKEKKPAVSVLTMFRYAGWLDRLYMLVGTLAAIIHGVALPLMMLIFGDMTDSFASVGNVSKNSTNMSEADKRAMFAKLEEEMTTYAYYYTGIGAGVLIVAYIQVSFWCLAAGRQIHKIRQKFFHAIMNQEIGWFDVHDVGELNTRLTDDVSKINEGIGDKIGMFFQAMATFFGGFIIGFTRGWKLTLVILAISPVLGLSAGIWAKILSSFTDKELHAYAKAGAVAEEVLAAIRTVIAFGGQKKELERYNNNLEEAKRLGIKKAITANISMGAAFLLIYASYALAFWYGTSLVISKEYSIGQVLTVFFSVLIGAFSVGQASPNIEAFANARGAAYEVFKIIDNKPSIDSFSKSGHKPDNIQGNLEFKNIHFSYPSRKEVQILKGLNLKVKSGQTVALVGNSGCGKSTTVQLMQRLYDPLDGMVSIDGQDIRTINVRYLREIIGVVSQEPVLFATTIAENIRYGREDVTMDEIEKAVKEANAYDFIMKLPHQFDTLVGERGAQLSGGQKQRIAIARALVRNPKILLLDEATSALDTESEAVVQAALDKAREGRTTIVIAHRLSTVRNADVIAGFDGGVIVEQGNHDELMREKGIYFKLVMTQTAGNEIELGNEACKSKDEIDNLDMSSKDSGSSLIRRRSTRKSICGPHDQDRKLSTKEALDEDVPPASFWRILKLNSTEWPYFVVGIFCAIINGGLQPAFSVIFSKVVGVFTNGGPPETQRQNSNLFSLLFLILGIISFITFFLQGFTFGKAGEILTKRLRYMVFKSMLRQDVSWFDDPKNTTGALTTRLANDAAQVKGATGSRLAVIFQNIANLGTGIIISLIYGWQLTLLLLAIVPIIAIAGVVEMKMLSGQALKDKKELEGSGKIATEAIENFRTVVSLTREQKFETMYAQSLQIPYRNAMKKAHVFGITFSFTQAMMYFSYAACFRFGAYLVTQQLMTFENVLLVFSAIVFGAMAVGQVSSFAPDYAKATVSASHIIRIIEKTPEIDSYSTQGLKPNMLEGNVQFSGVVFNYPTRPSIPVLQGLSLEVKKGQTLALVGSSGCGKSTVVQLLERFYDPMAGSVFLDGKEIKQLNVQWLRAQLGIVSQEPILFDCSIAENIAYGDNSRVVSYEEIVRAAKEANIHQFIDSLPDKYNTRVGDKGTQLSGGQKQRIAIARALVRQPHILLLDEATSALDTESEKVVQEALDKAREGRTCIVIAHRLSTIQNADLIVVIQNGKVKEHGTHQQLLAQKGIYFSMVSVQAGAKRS

IVERMECTIN
Activity: substrate [+]
